From ChEMBL document CHEMBL1139011, “Inhibition of hepatitis B virus (HBV) replication by pyrimidines bearing an acyclic moiety: effect on wild-type and mutant HBV” (J Med Chem, 2006)

How the values were obtained:
[1] = test system: Vero; assay: Cytotoxicity against Vero cell by MTT assay; format: functional; details: Chlorocebus sabaeus
[2] = test system: Hepatitis B virus; assay: Inhibition of wild type HBV transfected in human hepatoblastoma 2.2.15 cells at 10 ug/mL; format: functional; details: HepG2 2.2.15
[3] = test system: Duck hepatitis B virus; assay: Inhibition of duck HBV transfected in primary duck hepatocytes at 10 ug/mL; format: functional; details: Hepatocyte
[4] = test system: Hepatitis B virus; assay: Inhibition of HBV L180M/ M204V mutant transfected in D88 cell line at 10 ug/mL; format: functional
[5] = test system: Hepatitis B virus; assay: Inhibition of wild type HBV transfected in human hepatoblastoma 2.2.15 cells; format: functional, organism-based; details: HepG2 2.2.15
[6] = test system: HepG2; assay: Cytotoxicity against HepG2 cell by MTT assay; format: functional; details: Homo sapiens
[7] = test system: Hepatitis B virus; assay: Inhibition of HBV M204I mutant transfected in B1 cell line at 10 ug/mL; format: functional
[8] = test system: Duck hepatitis B virus; assay: Inhibition of duck HBV transfected in primary duck hepatocytes; format: functional, organism-based; details: Hepatocyte
[9] = test system: Hepatitis B virus; assay: Inhibition of HBV L180M/ M204V mutant transfected in D88 cell line; format: functional, organism-based
[10] = test system: Hepatitis B virus; assay: Inhibition of HBV M204I mutant transfected in B1 cell line; format: functional, organism-based
[11] = test system: West Nile virus; assay: Inhibitory activity against West Nile virus; format: functional, organism-based

## Cc1c([N+](=O)[O-])c(=O)[nH]c(=O)n1COCCO
[1]
  CC50: > 408 µM
[2]
  inhibition at 10 µg/mL: 60%
[3]
  inhibition at 10 µg/mL: 68%
[4]
  inhibition at 10 µg/mL: 20%
[5]
  EC50: 20.4 µM
[6]
  CC50: > 408 µM
[7]
  inhibition at 10 µg/mL: 25%
[8]
  EC50: 20.4 µM

## Nc1cn(COCCO)c(=O)[nH]c1=O
[1]
  CC50: > 497 µM
[2]
  inhibition at 10 µg/mL: 50%
[3]
  inhibition at 10 µg/mL: 65%
[4]
  inhibition at 10 µg/mL: 30%
[5]
  EC50: 50 µM
[6]
  CC50: > 497 µM
[7]
  inhibition at 10 µg/mL: 30%
[8]
  EC50: 5 µM

## COC(=O)c1cc(=O)[nH]c(=O)n1COCCO
[1]
  CC50: > 409 µM
[2]
  inhibition at 10 µg/mL: 60%
[3]
  inhibition at 10 µg/mL: 56%
[4]
  inhibition at 10 µg/mL: 0%
[5]
  EC50: 40.9 µM
[6]
  CC50: > 409 µM
[7]
  inhibition at 10 µg/mL: 0%
[8]
  EC50: 40.9 µM

## O=c1[nH]c(=O)n(COCCO)cc1CO
[1]
  CC50: > 476 µM
[2]
  inhibition at 10 µg/mL: 50%
[3]
  inhibition at 10 µg/mL: 55%
[4]
  inhibition at 10 µg/mL: 30%
[5]
  EC50: 23.8 µM
[6]
  CC50: > 476 µM
[7]
  inhibition at 10 µg/mL: 0%
[8]
  EC50: 47.6 µM

## O=c1[nH]c(=O)n(COCCO)cc1Br
[1]
  CC50: > 377 µM
[2]
  inhibition at 10 µg/mL: 60%
[3]
  inhibition at 10 µg/mL: 89%
[9]
  EC50: 3.7 µM
[4]
  inhibition at 10 µg/mL: 73%
[5]
  EC50: 18.5 µM
[6]
  CC50: > 377 µM
[7]
  inhibition at 10 µg/mL: 67%
[10]
  EC50: 18.5 µM
[8]
  EC50: 3.7 µM

## O=c1ccn(COCCO)c(=S)[nH]1
[1]
  CC50: > 495 µM
[2]
  inhibition at 10 µg/mL: 42%
[3]
  inhibition at 10 µg/mL: 46%
[4]
  inhibition at 10 µg/mL: 0%
[5]
  EC50: > 49.5 µM
[6]
  CC50: > 495 µM
[7]
  inhibition at 10 µg/mL: 30%
[8]
  EC50: > 49.5 µM

## CCOC(=O)c1cn(COCCO)c(=S)[nH]c1=O
[1]
  CC50: > 364 µM
[2]
  inhibition at 10 µg/mL: 50%
[3]
  inhibition at 10 µg/mL: 53%
[4]
  inhibition at 10 µg/mL: 0%
[5]
  EC50: 18.2 µM
[6]
  CC50: > 364 µM
[7]
  inhibition at 10 µg/mL: 20%
[8]
  EC50: 36.4 µM

## O=c1[nH]c(=O)n(COCCO)cc1[N+](=O)[O-]
[1]
  CC50: > 432 µM
[2]
  inhibition at 10 µg/mL: 54%
[3]
  inhibition at 10 µg/mL: 53%
[4]
  inhibition at 10 µg/mL: 0%
[11]
  EC50: > 134 µM
[5]
  EC50: 43.2 µM
[6]
  CC50: > 432 µM
[7]
  inhibition at 10 µg/mL: 30%
[8]
  EC50: 43.2 µM

## Nc1nc(NC2CC2)c2ncn([C@H]3C=C[C@@H](CO)C3)c2n1 [ABACAVIR]
[9]
  EC50: 3.4 µM
[4]
  inhibition at 10 µg/mL: 72%
[7]
  inhibition at 10 µg/mL: 80%
[10]
  EC50: 3.4 µM

## O=c1[nH]c(=O)n(COCCO)cc1C(F)(F)F
[1]
  CC50: > 393 µM
[2]
  inhibition at 10 µg/mL: 55%
[3]
  inhibition at 10 µg/mL: 76%
[9]
  EC50: 39.3 µM
[4]
  inhibition at 10 µg/mL: 50%
[5]
  EC50: 19.6 µM
[6]
  CC50: > 393 µM
[7]
  inhibition at 10 µg/mL: 53%
[10]
  EC50: 39.3 µM
[8]
  EC50: 3.9 µM

## Nc1ccn([C@@H]2CS[C@H](CO)O2)c(=O)n1 [LAMIVUDINE]
[2]
  inhibition at 10 µg/mL: 88%
[3]
  inhibition at 10 µg/mL: 96%
[4]
  inhibition at 10 µg/mL: 30%
[5]
  EC50: 2.1 µM
[7]
  inhibition at 10 µg/mL: 45%
[10]
  EC50: > 44 µM
[8]
  EC50: 0.04 µM

## Cc1cc(=O)[nH]c(=O)n1COCCO
[1]
  CC50: > 500 µM
[2]
  inhibition at 10 µg/mL: 55%
[3]
  inhibition at 10 µg/mL: 60%
[4]
  inhibition at 10 µg/mL: 0%
[5]
  EC50: 25 µM
[6]
  CC50: > 500 µM
[7]
  inhibition at 10 µg/mL: 30%
[8]
  EC50: 25 µM

## O=c1[nH]c(=O)n(COCCO)cc1Cl
[1]
  CC50: > 454 µM
[2]
  inhibition at 10 µg/mL: 82%
[3]
  inhibition at 10 µg/mL: 94%
[9]
  EC50: 4.5 µM
[4]
  inhibition at 10 µg/mL: 70%
[5]
  EC50: 4.5 µM
[6]
  CC50: > 454 µM
[7]
  inhibition at 10 µg/mL: 69%
[10]
  EC50: 4.5 µM
[8]
  EC50: 0.4 µM

## CCc1cn(COCCO)c(=S)[nH]c1=O
[1]
  CC50: > 478 µM
[2]
  inhibition at 10 µg/mL: 40%
[3]
  inhibition at 10 µg/mL: 45%
[9]
  EC50: > 47.8 µM
[4]
  inhibition at 10 µg/mL: 40%
[5]
  EC50: > 47.8 µM
[6]
  CC50: > 478 µM
[7]
  inhibition at 10 µg/mL: 20%
[8]
  EC50: > 47.8 µM

## O=c1cnn(COCCO)c(=O)[nH]1
[1]
  CC50: > 534 µM
[2]
  inhibition at 10 µg/mL: 25%
[3]
  inhibition at 10 µg/mL: 25%
[5]
  EC50: > 53 µM
[6]
  CC50: > 534 µM
[8]
  EC50: > 53 µM

## Cc1c(I)c(=O)[nH]c(=O)n1COCCO
[1]
  CC50: > 306 µM
[2]
  inhibition at 10 µg/mL: 53%
[3]
  inhibition at 10 µg/mL: 51%
[4]
  inhibition at 10 µg/mL: 25%
[5]
  EC50: 30.6 µM
[6]
  CC50: > 306 µM
[7]
  inhibition at 10 µg/mL: 30%
[8]
  EC50: 30.6 µM

## O=c1[nH]c(=O)n(COCCO)cc1I
[1]
  CC50: > 320 µM
[3]
  inhibition at 10 µg/mL: 50%
[6]
  CC50: > 320 µM
[8]
  EC50: 32 µM
